Data published in ChEMBL document CHEMBL5036325, “Novel Biphenyl Pyridines as Potent Small-Molecule Inhibitors Targeting the Programmed Cell Death-1/Programmed Cell Death-Ligand 1 Interaction” (J Med Chem, 2021).
Activity calls are given as the source filed them. The rule behind the calls is not given here.

Key:
[1] = molecular target: Programmed cell death protein 1/Programmed cell death 1 ligand 1 (Homo sapiens, UniProt Q9NZQ7); assay: Inhibition of PD-1/PD-L1 interaction (unknown origin) preincubated with PD-L1 for 15 mins followed by PD-1 addition measured after 90 mins by TR-FRET assay; format: protein-complex assay
[2] = tested on: MDA-MB-231; assay: Antitumor immunity against human MDA-MB-231 cells co-cultured with CD3/CD28/CD2 T cell activator stimulated human PMBC assessed as cell death measuring lactate dehydrogenase release at 48.9 to 1500 nM measured for 12 hrs by PBMC killing assay; format: functional, cell-based; settings: dose lower 48.9 nM, dose upper […]
[3] = tested on: MDA-MB-231; assay: Antitumor immunity against human MDA-MB-231 cells co-cultured with CD3/CD28/CD2 T cell activator stimulated human PMBC assessed as cell death measuring lactate dehydrogenase release measured for 12 hrs by PBMC killing assay; format: functional, cell-based; settings: MDA-MB-231, 12 h
[4] = tested on: MDA-MB-231; assay: Antitumor immunity against human MDA-MB-231 cells co-cultured with CD3/CD28/CD2 T cell activator stimulated human PMBC assessed as cell death measuring lactate dehydrogenase release at 375 nM measured for 12 hrs by PBMC killing assay relative to control; format: functional
[5] = AUC (0 to t) in Sprague-Dawley rat at 3 mg/kg, iv measured upto 24 hrs by LC-MS/MS analysis; format: ADME, organism-based; design: route intravenous, dose 3 mg/kg, time <=24; settings: in vivo
[6] = AUC (0 to t) in Sprague-Dawley rat at 25 mg/kg, po measured upto 24 hrs by LC-MS/MS analysis; format: ADME, organism-based; design: route oral, dose 25 mg/kg, time <=24; settings: in vivo
[7] = Cmax in Sprague-Dawley rat at 3 mg/kg, iv measured upto 24 hrs by LC-MS/MS analysis; format: ADME, organism-based; design: route intravenous, dose 3 mg/kg, time <=24; settings: in vivo
[8] = Cmax in Sprague-Dawley rat at 25 mg/kg, po measured upto 24 hrs by LC-MS/MS analysis; format: ADME, organism-based; design: route oral, dose 25 mg/kg, time <=24; settings: in vivo
[9] = Half life in Sprague-Dawley rat at 3 mg/kg, iv measured upto 24 hrs by LC-MS/MS analysis; format: ADME, organism-based; settings: in vivo
[10] = Half life in Sprague-Dawley rat at 25 mg/kg, po measured upto 24 hrs by LC-MS/MS analysis; format: ADME, organism-based; settings: in vivo
[11] = Tmax in Sprague-Dawley rat at 3 mg/kg, iv measured upto 24 hrs by LC-MS/MS analysis; format: ADME, organism-based; settings: in vivo
[12] = Tmax in Sprague-Dawley rat at 25 mg/kg, po measured upto 24 hrs by LC-MS/MS analysis; format: ADME, organism-based; settings: in vivo
[13] = Clearance in Sprague-Dawley rat at 3 mg/kg, iv measured upto 24 hrs by LC-MS/MS analysis; format: ADME, organism-based; settings: in vivo
[14] = Clearance in Sprague-Dawley rat at 25 mg/kg, po measured upto 24 hrs by LC-MS/MS analysis; format: ADME, organism-based; settings: in vivo
[15] = Apparent volume of distribution in Sprague-Dawley rat at 3 mg/kg, iv measured upto 24 hrs by LC-MS/MS analysis; format: ADME, organism-based; settings: in vivo, read-out: Vz
[16] = Apparent volume of distribution in Sprague-Dawley rat at 25 mg/kg, po measured upto 24 hrs by LC-MS/MS analysis; format: ADME, organism-based; settings: in vivo
[17] = Oral bioavailability in Sprague-Dawley rat at 25 mg/kg measured upto 24 hrs by LC-MS/MS analysis; format: ADME, organism-based; settings: in vivo
[18] = tested on: CT26; assay: Antitumour activity against mouse CT26 cells implanted in po dosed BALB/c mouse assessed as increase in CD8+ cells in dissociated tumor tissue administered once daily for 2 weeks by flow cytometry analysis; format: functional, organism-based
[19] = tested on: CT26; assay: Antitumor activity against mouse CT26 cells implanted in BALB/c mouse assessed as decrease in final tumor weight at 40 to 80 mg/kg/day, po measured once in 2 weeks relative to control; format: functional; design: scale not given: the % may be the effect or the level left; settings: dose 40-80 mg/kg/day
[20] = tested on: CT26; assay: Antitumor activity against mouse CT26 cells implanted in BALB/c mouse assessed as tumor growth inhibition at 40 to 80 mg/kg/day, po measured once in 2 weeks relative to control; format: functional; settings: dose 40-80 mg/kg/day
[21] = tested on: CT26; assay: Antitumour activity against mouse CT26 cells implanted in BALB/c mouse assessed as increased infiltration of CD8+ cell in tumor tissue at 40 to 80 mg/kg, po administered twice a day by immunohistochemical analysis; format: functional, organism-based; settings: dose 40-80 mg/kg
[22] = tested on: CT26; assay: Antitumour activity against mouse CT26 cells implanted in BALB/c mouse assessed as decrease in nucleus to cytoplasm ratio at 40 to 80 mg/kg, po administered twice a day by Hematoxylin and Eosin staining based analysis; format: functional, organism-based; settings: dose 40-80 mg/kg
[23] = tested on: CT26; assay: Antitumour activity against mouse CT26 cells implanted in BALB/c mouse assessed as induction of tumor shrinkage at 40 to 80 mg/kg, po administered twice a day by Hematoxylin and Eosin staining based analysis; format: functional, organism-based; settings: dose 40-80 mg/kg
[24] = tested on: CT26; assay: Antitumour activity against mouse CT26 cells implanted in BALB/c mouse assessed as inhibition of tumour cell growth at 40 to 80 mg/kg, po administered twice a day by Hematoxylin and Eosin staining based analysis; format: functional, organism-based; settings: dose 40-80 mg/kg
[25] = tested on: CT26; assay: Antitumour activity against mouse CT26 cells implanted in BALB/c mouse assessed as inhibition of tumour growth at 40 mg/kg, po measured for 14 days relative to control; format: functional; settings: 336 h, time 14 day, read-out: TGI
[26] = Cytotoxicity against human PBMC cells assessed as cell viability at […] by LDH assay; format: cell-based; settings: dose 1.5 µM
[27] = tested on: MDA-MB-231; assay: Antitumor activity against human MDA-MB 231 cells assessed as cell viability at […] by LDH assay; format: functional, cell-based; settings: dose 1.5 µM
[28] = Toxicity in BALB/c mouse implanted with mouse CT26 cells assessed as body weight change at 40 to 80 mg/kg/day, po measured once in 2 weeks; format: organism-based; settings: in vivo, 336 h, dose 40-80 mg/kg/day
[29] = Toxicity in BALB/c mouse implanted with mouse CT26 cells assessed as mortality at 40 to 80 mg/kg/day, po measured once in 2 weeks; format: organism-based; settings: in vivo, 336 h, dose 40-80 mg/kg/day
[30] = tested on: MDA-MB-231; assay: Antitumor immunity against human MDA-MB-231 cells co-cultured with CD3/CD28/CD2 T cell activator stimulated human PMBC assessed as cell death measuring lactate dehydrogenase release at 500 nM measured for 12 hrs by PBMC killing assay relative to control; format: functional

Programmed cell death protein 1/Programmed cell death 1 ligand 1, sequence (Q15116 whole entry): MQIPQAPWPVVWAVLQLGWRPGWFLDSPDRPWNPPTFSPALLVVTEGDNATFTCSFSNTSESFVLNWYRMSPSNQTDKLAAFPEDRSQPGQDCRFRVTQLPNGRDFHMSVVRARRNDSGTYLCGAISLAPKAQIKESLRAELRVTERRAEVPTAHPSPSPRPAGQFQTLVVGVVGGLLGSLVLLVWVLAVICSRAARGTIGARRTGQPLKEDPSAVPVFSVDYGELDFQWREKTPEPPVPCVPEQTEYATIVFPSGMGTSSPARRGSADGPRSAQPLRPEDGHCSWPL
Programmed cell death protein 1/Programmed cell death 1 ligand 1, sequence (Q9NZQ7 whole entry): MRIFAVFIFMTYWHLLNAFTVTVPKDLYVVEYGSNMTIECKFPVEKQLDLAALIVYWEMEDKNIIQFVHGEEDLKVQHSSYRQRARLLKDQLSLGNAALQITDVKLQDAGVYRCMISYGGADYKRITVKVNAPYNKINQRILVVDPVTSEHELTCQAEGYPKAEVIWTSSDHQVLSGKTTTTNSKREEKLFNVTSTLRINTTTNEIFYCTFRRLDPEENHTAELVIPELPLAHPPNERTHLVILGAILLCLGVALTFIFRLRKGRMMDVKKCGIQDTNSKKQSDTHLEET

COc1nc(-c2cccc(-c3ccccc3)c2C)ccc1CN[C@H](C)CO
IC50 [1]: 0.005 µM

COc1nc(-c2cccc(-c3ccccc3)c2C)ccc1CN1CC[C@@H](O)C1
IC50 [1]: 0.0085 µM

COc1cccc(-c2cccc(-c3ccc(CNCCO)c(OC)n3)c2C)c1
IC50 [1]: 0.0126 µM

COc1nc(-c2cccc(-c3ccc4c(c3)OCCO4)c2C)ccc1CN[C@@H](CO)C(=O)O
IC50 [1]: 0.0104 µM

COc1nc(-c2cccc(-c3ccccc3)c2C)ccc1CNCCO
Activity [2]: Active
EC50 [3]: 0.1 µM
Activity [4]: 53%
AUC(0-t) at 24 h [5]: 430 ng·h/mL
AUC(0-t) at 24 h [6]: 787 ng·h/mL
Cmax [7]: 1230 ng/mL
Cmax [8]: 192 ng/mL
half-life [9]: 4.2 h
half-life [10]: 6.4 h
Tmax [11]: 1.8 min
Tmax [12]: 0.69 h
clearance [13]: 192 mL/min/kg
CL/F [14]: 480 mL/min/kg
Vd [15]: 78.6 L/kg
Vz [16]: 249.3 L/kg
bioavailability [17]: 22%
Activity [18]: Dose-Dependent Effect
Activity [19]: 60%
TGI [20]: 67%
Activity [21]: Active
Activity [22]: Active
Activity [23]: Active
Activity [24]: Active
inhibition in vivo at 40 mg/kg [25]: 57%
Activity [26]: Non-Toxic
Activity [27]: inactive
Activity [28]: Non-Toxic
Activity [29]: Non-Toxic

Cc1c(-c2ccccc2)cccc1-c1ccc(CNCCO)cn1
IC50 [1]: 0.0346 µM

COc1nc(-c2cccc(-c3ccccc3)c2C)ccc1CNCCNC(C)=O
IC50 [1]: 0.0144 µM

COc1nc(-c2cccc(-c3ccc4c(c3)OCCO4)c2C)ccc1CNCCCO
IC50 [1]: 0.0077 µM

COc1nc(-c2cccc(-c3ccc4c(c3)OCO4)c2C)ccc1CNCCO
IC50 [1]: 0.0132 µM

COc1nc(-c2cccc(-c3ccccc3)c2C)ccc1CNCCCO
IC50 [1]: 0.0074 µM

COc1nc(-c2cccc(-c3ccccc3)c2C)ccc1C(=O)NCCO
IC50 [1]: 0.327 µM

COc1nc(-c2cccc(-c3ccccc3)c2C)ccc1CNC[C@@H]1CCC(=O)N1
IC50 [1]: 0.0142 µM

COc1nc(-c2cccc(-c3ccc4c(c3)OCCO4)c2C)ccc1CNCCNC(C)=O
IC50 [1]: 0.0141 µM

COc1nc(-c2cccc(-c3ccc4c(c3)OCCO4)c2C)ccc1CNCCO
IC50 [1]: 0.0079 µM

COc1nc(-c2cccc(-c3ccccc3)c2C)ccc1CNCCN
IC50 [1]: 0.0208 µM

COC(=O)c1ccc(-c2cccc(-c3ccccc3)c2C)nc1OC
IC50 [1]: 0.326 µM

Cc1c(-c2ccccc2)cccc1-c1cc(CNCCO)ccn1
IC50 [1]: 0.131 µM

COc1nc(-c2cccc(-c3ccccc3)c2C)ccc1CN[C@@H](CO)C(=O)O
IC50 [1]: 0.017 µM

COc1nc(-c2cccc(-c3ccc4c(c3)OCCO4)c2C)ccc1CNCCN
IC50 [1]: 0.0167 µM

CC(=O)NCCNCc1ccc(-c2cccc(-c3ccccc3)c2C)nc1
IC50 [1]: 0.0528 µM

COc1nc(-c2cccc(-c3ccccc3)c2C)ccc1CN(C)CCO
IC50 [1]: 0.0084 µM

COc1nc(OCc2cccc(-c3ccccc3)c2C)ccc1CNCCNC(C)=O
Activity [30]: 44%
inhibition in vivo at 40 mg/kg [25]: 32%
